Measurements: publication PMC4666608, “Metabolic Profiling of Chicken Embryos Exposed to Perfluorooctanoic Acid (PFOA) and Agonists to Peroxisome Proliferator-Activated Receptors” (PLoS ONE, 2015)
Marks after values point to notes of the source that are not given here.

System: chicken embryos
Experiment: Metabolic profiling of blood plasma (GC-MS, LC-MS, OPLS-DA)
Type: in vivo, Gallus gallus domesticus
Settings: LC
Protocol: Controls were injected with 20 μL vehicle only (DMSO).
Plasma was collected and stored at -70°C.
Metabolites in allantoic fluid and blood plasma were analyzed using gas chromatography-mass spectrometry (GC-MS) and liquid chromatography-mass spectrometry (LC-MS) as described in S1 Methods. Prior to GC-MS and LC-MS analysis, allantoic fluid (100 μL) and blood plasma (50 μL) were extracted. To each sample, 900 μL (allantoic fluid) or 450 μL (blood plasma) of extraction buffer (90/10 v/v methanol:water) including all internal standards were added. Standards for GC-MS were proline, succinic acid, glutamic acid, salicylic acid, alpha-ketoglutarate, putrescine, myristic acid, hexadecanoic acid, cholesterol, and sucrose. Standards for LC-MS were Val-Tyr-Val, Leu-enkephalin, sulfadimethoxine and reserpine. Samples were homogenized by shaking in a bead mill at a frequency of 30 Hz for 3 minutes and proteins were precipitated at +4°C on ice. The samples were centrifuged at +4°C, 14000 rpm, for 10 min. Then, 200 μL supernatant was transferred to a GC microvial and 200 μL was transferred to an LC microvial, and solvents were evaporated. Samples from the four replicate experiments were analyzed using in chronological order and within each replicate experiment the run order of the individual samples was randomized.
Multivariate statistical analyses of metabolite profiles were performed using the software package SIMCA-P version 13.0 (Umetrics, Umeå, Sweden). Data was centered and scaled to variance 1 (UV scaling) prior to modelling. To reduce unintended systematic variation caused by sample processing and instrument drift, GC-MS and LC-MS metabolite amounts (expressed as the area under the chromatographic peak) were normalized by Orthogonal Partial Least Squares analysis (O2PLS) prior to multivariate data analysis. O2PLS finds common (predictive) and unique (orthogonal) variation in two data matrices. If applied to find the common variation between the data matrix containing the measured metabolite concentrations and a matrix containing only the internal standards, the only common (predictive) variation expected is due to the unintended systematic variation. By deleting the contribution of the predictive latent variables, that variation can be removed from the data. Models obtained after this normalization contain in general less latent variables, and this simplification helps when deciding on the number of latent variables to be used. Following normalization, GC-MS and LC-MS data were analyzed together. Initially, a global Principal Component Analysis (PCA) was performed to get an overview of groups and trends and to identify outliers. Projections to latent structures by means of Orthogonal Partial Least Squares Discriminant Analysis (OPLS-DA) was used to model the relationship between the X-matrix (metabolite concentrations) and the Y matrix (class, i.e. exposure group or sex), and to find x-variables that were related to class belonging. OPLS-DA is a supervised prediction and regression method that rotates the projection plane to find the maximum covariance between the data and the class assignment. All groups were first analyzed together in a 5-class OPLS-DA and then each exposure group was analyzed against the control group in a 2-class OPLS-DA. Sex differences were analyzed both using the whole data set and in each group separately using 2-class OPLS-DA, with females and males as the two classes. Only variables with 80% or more nonzero values were included in the statistical models. […] The validity of each model was also checked using CV-ANOVA (ANOVA of the cross-validated residuals). A significance level of p < 0.05 was used. For each model, R ^2 X, R ^2 Y and Q ^2 values were calculated, where R ^2 X is a measure of the fraction of x variation modeled in the extracted latent variables, R ^2 Y is a measure of the fraction of y variation modeled and Q ^2 is an estimate of the predictive ability of the model and is calculated by cross-validation. […]

O=C(O)C(F)(F)C(F)(F)C(F)(F)C(F)(F)C(F)(F)C(F)(F)C(F)(F)F [PFOA, perfluorooctanoic acid]
1.2: Mean concentration relative to control, feature 827.5078@8.831237 (PFOA 50) | Mean concentration relative to control, feature 755.5465@10.73882 (PFOA 250) | Mean concentration relative to control, feature 827.5078@8.831237 (PFOA 250)
1.2**: Mean concentration relative to control, feature 213.2458@7.4887733 (PFOA 250) | Mean concentration relative to control, feature 310.178@7.5343466 (PFOA 250)
1.4: Mean concentration relative to control, feature 159.0686@1.1608156 (PFOA 250)
0.7***: Mean concentration relative to control, feature 342.2883@7.526812 (PFOA 250)
0.7*: Mean concentration relative to control, feature 260.0508@0.69984084 (PFOA 250) | Mean concentration relative to control, feature 444.3607@10.33052 (PFOA 250)
1: Mean concentration relative to control, feature 755.5465@10.73882 (PFOA 50) | Mean concentration relative to control, feature 1262.4865@1.947075 (PFOA 50) | Mean concentration relative to control, feature 1591.051@5.0189176 (PFOA 50) | Mean concentration relative to control, feature 1591.388@5.0202384 (PFOA 50) | Mean concentration relative to control, feature 1591.7203@5.018071 (PFOA 50) | Mean concentration relative to control, feature 118.0284@2.480333 (C4H6O4) (PFOA 250) | Mean concentration relative to control, feature 122.0486@0.675613 (PFOA 250) | Mean concentration relative to control, feature 146.0362@0.7772238 (PFOA 250) | Mean concentration relative to control, feature 164.0449@0.7694838 (PFOA 250) | Mean concentration relative to control, feature 226.0721@1.9460537 (PFOA 250) | Mean concentration relative to control, feature 278.0939@1.3354088 (PFOA 250) | Mean concentration relative to control, feature 293.0903@1.5739433 (PFOA 250) | Mean concentration relative to control, feature 348.0675@1.5761927 (PFOA 250) | Mean concentration relative to control, feature 355.9454@0.68034226 (PFOA 250) | Mean concentration relative to control, feature 366.1431@1.4228548 (PFOA 250) | Mean concentration relative to control, feature 375.3108@8.995564 (PFOA 250) | Mean concentration relative to control, feature 389.2686@9.046645 (PFOA 250) | Mean concentration relative to control, feature 407.0999@1.585909 (PFOA 250) | Mean concentration relative to control, feature 412.135@2.4779084 (C17H24N4O6S) (PFOA 250) | Mean concentration relative to control, feature 509.1184@2.4798179 (PFOA 250) | Mean concentration relative to control, feature 525.2855@8.361063 (PFOA 250) | Mean concentration relative to control, feature 558.4095@9.459733 (PFOA 250) | Mean concentration relative to control, feature 634.2403@1.9467853 (PFOA 250) | Mean concentration relative to control, feature 1262.4865@1.947075 (PFOA 250) | Mean concentration relative to control, feature 1591.051@5.0189176 (PFOA 250)
1.4*: Mean concentration relative to control, feature 339.3861@9.528681 (PFOA 250)
1.1*: Mean concentration relative to control, feature 1316.4163@1.9465046 (PFOA 50) | Mean concentration relative to control, feature 126.0428@1.2278157 (Thymine) (PFOA 250) | Mean concentration relative to control, feature 644.1614@0.7647065 (PFOA 250)
2.0***: Mean concentration relative to control, feature 307.2147@7.5065937 (C18H29NO3) (PFOA 250)
0.9: Mean concentration relative to control, feature 203.1162@0.5130696 (PFOA 250) | Mean concentration relative to control, feature 231.0174@1.6241412 (PFOA 250) | Mean concentration relative to control, feature 250.1317@2.1334834 (PFOA 250) | Mean concentration relative to control, feature 276.0173@1.6283482 (PFOA 250) | Mean concentration relative to control, feature 659.5483@11.4915495 (PFOA 250) | Mean concentration relative to control, feature 1591.388@5.0202384 (PFOA 250) | Mean concentration relative to control, feature 1591.7203@5.018071 (PFOA 250)
1.1: Mean concentration relative to control, feature 698.2598@1.3599721 (PFOA 50) | Mean concentration relative to control, feature 700.5514@10.765638 (PFOA 50) | Mean concentration relative to control, feature 202.1024@5.0303197 (C8H14N2O4) (PFOA 250) | Mean concentration relative to control, feature 233.1265@2.535991 (PFOA 250) | Mean concentration relative to control, feature 373.296@9.044806 (PFOA 250) | Mean concentration relative to control, feature 471.9819@0.685074 (PFOA 250) | Mean concentration relative to control, feature 545.2492@8.463657 (PFOA 250) | Mean concentration relative to control, feature 577.2747@9.25652 (PFOA 250) | Mean concentration relative to control, feature 581.1643@0.77029324 (PFOA 250) | Mean concentration relative to control, feature 698.2598@1.3599721 (PFOA 250) | Mean concentration relative to control, feature 700.5514@10.765638 (PFOA 250)
0.8: Mean concentration relative to control, feature 489.1508@8.562614 (PFOA 250)
1.0: Mean concentration relative to control, feature 659.5483@11.4915495 (PFOA 50) | Mean concentration relative to control, feature 875.4661@10.5661745 (PFOA 50) | Mean concentration relative to control, feature 215.047@1.6260729 (C5H14NO6P) (PFOA 250) | Mean concentration relative to control, feature 362.1467@0.8461036 (PFOA 250) | Mean concentration relative to control, feature 565.1902@0.7699907 (PFOA 250) | Mean concentration relative to control, feature 875.4661@10.5661745 (PFOA 250) | Mean concentration relative to control, feature 1316.4163@1.9465046 (PFOA 250)
